# Experiments:
# [1] = tested on: L. (L.) amazonensis promastigote forms; assay: In vitro antileishmanial activity on promastigote forms (MTT); format: cell-based, Leishmania (Leishmania) amazonensis; settings: 72 h, MTT; read-out: L. amazonensis Promastigotes (Pro.) IC50
# [2] = tested on: L. (L.) amazonensis intracellular amastigotes; assay: In vitro antileishmanial activity on intracellular amastigotes in peritoneal macrophages; format: cell-based, Leishmania (Leishmania) amazonensis
# Method: Peritoneal macrophages were obtained from BALB/c mice in RPMI 1640 culture medium (Sigma-Aldrich® São Paulo, Brazil). After exclusion of inviable cells with trypan blue staining (Sigma-Aldrich® São Paulo, Brazil), cells were transferred to 24-well plates with 13 mm round glass coverslips (10^6 cells/well) and kept at 37 °C/5% CO2. After adhesion for one hour, cells were infected with promastigote forms of L. (L.) amazonensis in the stationary phase (4 × 10^6 cells/well). After 4 h of incubation, samples (complexes 1–7) were added in six replicates (6.25–50.0 µg·mL^−1). […] Coverslips were removed after 24 h, subjected to a dehydration battery with increasing concentrations of acetone: xylol and stained with Giemsa (Sigma-Aldrich®, São Paulo, Brazil) diluted 1:10 in distilled water. After mounting on slides, 200 cells per coverslip were analyzed by light microscopy and the average number of amastigotes/cells was calculated. IC50 was determined using a non-linear dose–response regression curve as described above. The concentrations of complexes were compared by Two-way ANOVA followed by the Tukey test.
# [3] = tested on: NIH/3T3 fibroblasts; assay: Cytotoxicity in mammalian cells (sulforhodamine B); format: cell-based; settings: 48 h, read-out: Fibroblasts NIH/3T3 (Fib.) IC50
# Method: The cytotoxic effect of compounds 1–7 was evaluated on NIH/3T3 fibroblasts obtained from the Rio de Janeiro Cell Bank (Duque de Caxias, Brazil). Fibroblasts were seeded at […] in 96-well plates. After 24 h of fixation, cells were incubated for 48 h with 1–7 at 2.5–250 µg·mL^−1, in three replicates. Cell growth was evaluated using the sulforhodamine B colorimetric method, and the optical with absorbances read on the PT-READER microplate instrument (Spectramax 190, Molecular Devices, Sunnyvale, CA, USA) at 540 nm. […] The growth inhibition percentage-GI (%) of each test sample was calculated in Microsoft Office Excel 2007 software. IC50 was determined graphically in the Microcal Origin Version 6.00 program. The selectivity index (SI) was calculated as the ratio between the cytotoxicity on cells (IC50) and the activity on the parasite forms (IC50).
# [4] = tested on: L. (L.) amazonensis promastigote forms; assay: Flow cytometry for mitochondrial membrane potential (TMRE); format: cell-based, Leishmania (Leishmania) amazonensis
# [5] = tested on: L. (L.) amazonensis promastigote forms; assay: Flow cytometry for apoptosis and membrane permeability (PE Annexin V / 7-AAD); format: cell-based, Leishmania (Leishmania) amazonensis; settings: treatment at IC50
# Description: PE Annexin V staining precedes the loss of membrane integrity observed in the final stages of cell death, resulting from either apoptotic or necrotic processes. PE Annexin V is used in conjunction with the vital dye 7-Amino-Actinomycin (7-AAD) to identify early apoptotic cells (7-AAD negative, PE Annexin V positive). Viable cells with intact membranes exclude 7-AAD, but the membranes of dead and damaged cells are permeable to 7-AAD. Cells that are in late apoptosis or already dead are both PE Annexin V and 7-AAD positive. […] Heat-killed parasites (60 °C bath/10 min) were used as positive control, and untreated parasites were used as negative control. Promastigotes were stained with 5 µL of PE Annexin V and 5 µL 7-AAD (PE Annexin V Apoptosis Detection Kit I, BD Biosciences^TM, Franklin Lakes, NJ, USA) and immediately subjected to flow cytometric analysis (BD FACSCanto^TM II). Then, 10,000 events were captured in the region previously determined to correspond to the parasites. Fluorescence was quantified and histograms were generated.
# [6] = tested on: L. (L.) amazonensis-infected macrophages; assay: NO production by infected cells (Griess reaction); format: cell-based, BALB/c mice; settings: 24 h after treatment, lowest concentration 6.25 µg·mL^−1
# Method: Nitric oxide (NO) production by infected and treated peritoneal macrophages was estimated in the supernatants from the intracellular amastigotes assay by the Griess reaction. Aliquots of the supernatants ([…]) were incubated with Griess reagent (1:1) for 10 min at room temperature. Absorbance was read on a microplate reader (HumanReader HS, Wiesbaden, Germany) at 550 nm. Conversion of nitrite (NO^−2) to micromolar (µM) was performed by comparing the samples to a standard curve obtained with known concentrations (1–10 µM) of sodium nitrite diluted in RPMI 1640 medium (Sigma-Aldrich® São Paulo, Brazil). The average and standard error of the mean (SEM) were calculated from three replicates. The data were analyzed using ANOVA and subsequently subjected to the Bonferroni test.
# [7] = tested on: promastigotes of L. (L.) infantum; set-up: method as in ref 18 Derici et al.; settings: ref 18 Derici et al.; cited from earlier work
# [8] = tested on: promastigotes of L. tropica; set-up: method as in ref 18 Derici et al.; settings: ref 18 Derici et al.; cited from earlier work
# [9] = tested on: L. (L.) infantum promastigotes; set-up: method as in ref 16 Luz et al.; settings: ref 16 Luz et al.; cited from earlier work
# [10] = tested on: promastigotes of Leishmania major; set-up: method as in ref 18 Derici et al.; settings: ref 18 Derici et al.; cited from earlier work
# [11] = tested on: L. (L.) infantum promastigotes; set-up: method as in ref 16 Luz et al.; settings: 25 μg·mL^−1; ref 16 Luz et al.; cited from earlier work
# [12] = tested on: Trypanosoma cruzi epimastigotes; set-up: method as in ref 45 Carvalho et al.; settings: 30–50 μg·mL^−1; ref 45 Carvalho et al.; cited from earlier work
compound,measurement,setting,value
CC(=O)C1=C([O-])C=C2Oc3c(C(C)=O)c(O)c(C)c(O)c3C2(C)C1=O.CC(=O)C1=C([O-])C=C2Oc3c(C(C)=O)c(O)c(C)c(O)c3C2(C)C1=O.CC(=O)C1=C([O-])C=C2Oc3c(C(C)=O)c(O)c(C)c(O)c3C2(C)C1=O.O.O.O.[Eu+3] (centres unmarked) [EuL3·3H2O 4],IC50,[1],200 nM
same,IC50,"[2]; BALB/c peritoneal macrophages, 24 h, Giemsa count, read-out: L. amazonensis Intracellular Amastigotes (Ama.) IC50",2980 nM
same,IC50 on intracellular amastigotes,[2]; converted from µM,3.687 µg/mL
same,IC50,[3],20100 nM
same,TMRE-labeled promastigotes,[4]; 48 h after treatment at the calculated IC50,79.9%
same,TMRE-labeled promastigotes,[4]; 72 h after treatment at the calculated IC50,80.6%
same,7-AAD-stained parasites,[5]; 24 h,0.5%
same,An. (PE Annexin V-stained parasites),[5]; 24 h,0.6%
same,An./7-AAD (double stained parasites),[5]; 24 h,0.7%
same,Unst. (unstained parasites),[5]; 24 h,98.2%
same,7-AAD-stained parasites,[5]; 48 h,1.0%
same,An. (PE Annexin V-stained parasites),[5]; 48 h,1.3%
same,An./7-AAD (double stained parasites),[5]; 48 h,2.3%
same,Unst. (unstained parasites),[5]; 48 h,95.4%
same,7-AAD-stained parasites,[5]; 72 h,6.0%
same,An. (PE Annexin V-stained parasites),[5]; 72 h,1.9%
same,An./7-AAD (double stained parasites),[5]; 72 h,8.1%
same,Unst. (unstained parasites),[5]; 72 h,84.0%
same,NO release from infected macrophages,[6],strongest effect
same,NO release from infected macrophages,[6]; listed as EuL3·3H2O,triggered NO release
"CC(=O)c1c(O)c(C)c(O)c2c1OC1=CC(=O)C(C(C)=O)C(=O)C12C (centres unmarked) [usnic acid, 2,6-diacetyl-7,9-dihydroxy-8,9-dimethyl-1,3(2H,9bH)-dibenzofurandione]",IC50/48 h on promastigotes,[7],13.34 µg/mL
same,IC50/48 h on promastigotes,[8],21.06 µg/mL
same,IC50/72 h on promastigotes,[9],18.30 µg/mL
same,IC50/48 h on promastigotes,[10],10.76 µg/mL
same,changes in the mitochondrial morphology,[11],marked swelling
same,damage to the mitochondria,[12],marked swelling and branching
